Measurements from patent US20260092061A1, “COMPOUNDS FOR TARGETED PROTEIN DEGRADATION” (Amphista Therapeutics Limited, priority 2022, published 2026).
Where two headings read alike, the source gives them in different places.

Target: T1, BRD9 (Homo sapiens, UniProt Q9H8M2)
T1 sequence (Q9H8M2 1-597): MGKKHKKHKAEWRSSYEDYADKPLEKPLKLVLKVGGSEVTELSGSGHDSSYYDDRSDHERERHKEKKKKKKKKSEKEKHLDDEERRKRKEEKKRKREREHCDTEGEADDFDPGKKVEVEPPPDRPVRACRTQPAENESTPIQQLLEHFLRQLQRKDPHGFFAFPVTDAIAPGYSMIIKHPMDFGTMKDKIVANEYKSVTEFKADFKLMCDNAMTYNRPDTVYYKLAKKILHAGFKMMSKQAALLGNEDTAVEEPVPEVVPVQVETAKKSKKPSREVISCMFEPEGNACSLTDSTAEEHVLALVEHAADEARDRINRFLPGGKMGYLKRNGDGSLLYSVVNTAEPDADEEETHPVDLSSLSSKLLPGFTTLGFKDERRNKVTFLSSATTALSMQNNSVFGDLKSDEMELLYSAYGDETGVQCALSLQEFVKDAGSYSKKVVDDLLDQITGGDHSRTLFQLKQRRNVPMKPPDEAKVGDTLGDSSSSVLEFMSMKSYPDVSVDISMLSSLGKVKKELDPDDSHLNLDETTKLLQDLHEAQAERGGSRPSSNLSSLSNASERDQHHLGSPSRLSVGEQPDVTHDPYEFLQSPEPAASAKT
Assay: Degradation of BRD9 (IF), immunofluorescence in MV4-11 cells, 24 hours (Assay Protocol 2)
Type: cell-based
Design: A suspension of MV4-11 cells (ATCC CRL-9591) was prepared; host or cells: MV4-11
Conditions: BRD9 degradation; for DC50: read-out: DC50
Summary of the method: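 % BRD9 remaining, scaled between DMSO (high) and 100 nM CFT-8634 (low) control wells, derives from mean Alexa 647 contrast in central nuclei by high-content imaging. MV4-11 cells had 24 h compound exposure at 37° C. before PFA fixation, Triton permeabilisation and anti-BRD9 E4Q3F immunostaining.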

[1] = MV4-11, Assay protocol 2, read-out: Dmax

Row | SMILES | DC50 (Assay protocol 2) | Dmax [1] | Dmax (Assay protocol 2)
1 | COc1cc(-c2cn(C)c(=O)c(C)c2C)cc(OC)c1CN1CC(N(C)Cc2ccc3c(c2)[C@H](C)N(C(=O)/C(C#N)=C/C(C)(C)C)CC3)C1 (single isomer, unassigned) [Compound C70, (E/Z)-2-(7-(((1-(2,6-dimethoxy-4-(1,4,5-trimethyl-6-oxo-1,6-dihydropyridin-3-yl)benzyl)460zetidine-4-yl)(methyl)amino)methyl)-1-methyl-1,2,3,4-tetrahydroisoquinoline-2-carbonyl)-4,4-dimethylpent-2-enenitrile] | 25 to 1000 nM | 40 to 70% | –
2 | COc1cc(-c2cn(C)c(=O)c(C)c2C)cc(OC)c1CN1CCC(Oc2ccc3c(c2)[C@H](C)N(C(=O)/C(C#N)=C/C(C)(C)C)CC3)CC1 (single isomer, unassigned) [Compound C73, (E/Z)-2-(7-((1-(2,6-dimethoxy-4-(1,4,5-trimethyl-6-oxo-1,6-dihydropyridin-3-yl)benzyl)piperidin-4-yl)oxy)-1-methyl-1,2,3,4-tetrahydroisoquinoline-2-carbonyl)-4,4-dimethylpent-2-enenitrile] | 1.25 to 10 nM | > 75% | –
3 | COc1cc(-c2cn(C)c(=O)c(C)c2C)cc(OC)c1CN1CCN(Cc2cccc3c2CCN(C(=O)/C(C#N)=C/C(C)(C)CF)C3C(C)C)C2(CC2)C1 (single isomer, unassigned) [Compound C76, (E/Z)-2-(5-((7-(2,6-dimethoxy-4-(1,4,5-trimethyl-6-oxo-1,6-dihydropyridin-3-yl)benzyl)-4,7-diazaspiro[2.5]octan-4-yl)methyl)-1-isopropyl-1,2,3,4-tetrahydroisoquinoline-2-carbonyl)-5-fluoro-4,4-dimethylpent-2-enenitrile] | 1.25 to 10 nM | 70 to 75% | –
4 | COc1cc(-c2cn(C)c(=O)c(C)c2C)cc(OC)c1CN1CCN(Cc2cccc3c2CCN(C(=O)/C(C#N)=C/C(C)(C)CF)C3C(C)C)C2(CC2)C1 (single isomer, unassigned) [Compound C77, (E/Z)-2-(5-((7-(2,6-dimethoxy-4-(1,4,5-trimethyl-6-oxo-1,6-dihydropyridin-3-yl)benzyl)-4,7-diazaspiro[2.5]octan-4-yl)methyl)-1-isopropyl-1,2,3,4-tetrahydroisoquinoline-2-carbonyl)-5-fluoro-4,4-dimethylpent-2-enenitrile] | < 1.25 nM | – | +++ (+++ = ≥75%)
5 | COc1cc(-c2cn(C)c(=O)c(C)c2C)cc(OC)c1CN1CCN(Cc2cccc3c2CCN(C(=O)/C(C#N)=C/C(C)(C)C)[C@@H]3C(C)C)C2(CC2)C1 (single isomer, unassigned) [Compound C79, (E/Z)-2-(5-((7-(2,6-dimethoxy-4-(1,4,5-trimethyl-6-oxo-1,6-dihydropyridin-3-yl)benzyl)-4,7-diazaspiro[2.5]octan-4-yl)methyl)-1-isopropyl-1,2,3,4-tetrahydroisoquinoline-2-carbonyl)-4,4-dimethylpent-2-enenitrile] | 25 to 1000 nM | 40 to 70% | –
6 | COc1cc(-c2cn(C)c(=O)c(C)c2C)cc(OC)c1CN1CCN(Cc2cccc3c2CCN(C(=O)/C(C#N)=C/C(C)(C)C)[C@H]3C(C)C)CC12CC2 (single isomer, unassigned) [Compound C81, (E/Z)-2-(5-((4-(2,6-dimethoxy-4-(1,4,5-trimethyl-6-oxo-1,6-dihydropyridin-3-yl)benzyl)-4,7-diazaspiro[2.5]octan-7-yl)methyl)-1-isopropyl-1,2,3,4-tetrahydroisoquinoline-2-carbonyl)-4,4-dimethylpent-2-enenitrile] | 1.25 to 10 nM | > 75% | –
7 | COc1cc(-c2cn(C)c(=O)c(C)c2C)cc(OC)c1CN1CCN(Cc2ccc3c(c2)[C@@H](C(C)C)N(C(=O)/C(C#N)=C/C(C)(C)C)CC3)C2(CC2)C1 (single isomer, unassigned) [Compound C88, (E/Z)-2-(7-((7-(2,6-dimethoxy-4-(1,4,5-trimethyl-6-oxo-1,6-dihydropyridin-3-yl)benzyl)-4,7-diazaspiro[2.5]octan-4-yl)methyl)-1-isopropyl-1,2,3,4-tetrahydroisoquinoline-2-carbonyl)-4,4-dimethylpent-2-enenitrile] | 25 to 1000 nM | 40 to 70% | –
8 | CC[C@@H]1c2cccc(CN3CCN(Cc4c(OC)cc(-c5cn(C)c(=O)c(C)c5C)cc4OC)C4(CC4)C3)c2CCN1C(=O)/C(C#N)=C/C(C)(C)C (single isomer, unassigned) [Compound C91, (E/Z)-2-(5-((4-(2,6-dimethoxy-4-(1,4,5-trimethyl-6-oxo-1,6-dihydropyridin-3-yl)benzyl)-4,7-diazaspiro[2.5]octan-7-yl)methyl)-1-ethyl-1,2,3,4-tetrahydroisoquinoline-2-carbonyl)-4,4-dimethylpent-2-enenitrile] | < 1.25 nM | > 75% | –

Other lines, results leading:

Row | DC50 (Assay protocol 2) | Dmax [1] | Dmax (Assay protocol 2) | SMILES
9 | 1.25 to 10 nM | 40 to 70% | – | COc1cc(-c2cn(C)c(=O)c(C)c2C)cc(OC)c1CN1CCC(N(C)c2ccc3c(c2)[C@@H](C)N(C(=O)/C(C#N)=C/C(C)(C)C)CC3)CC1 (single isomer, unassigned) [Compound C65]
10 | 1.25 to 10 nM | 40 to 70% | – | COc1cc(-c2cn(C)c(=O)c(C)c2C)cc(OC)c1CN1CCC2(CC1)CCN(c1ccc3c(c1)[C@H](C)N(C(=O)/C(C#N)=C/C(C)(C)C)CC3)C2 (single isomer, unassigned) [Compound C66]
11 | 25 to 1000 nM | 40 to 70% | – | COc1cc(-c2cn(C)c(=O)c(C)c2C)cc(OC)c1CN1CC(N(C)Cc2ccc3c(c2)[C@@H](C)N(C(=O)/C(C#N)=C/C(C)(C)C)CC3)C1 (single isomer, unassigned) [Compound C71, (E/Z)-2-(7-(((1-(2,6-dimethoxy-4-(1,4,5-trimethyl-6-oxo-1,6-dihydropyridin-3-yl)benzyl)460zetidine-4-yl)(methyl)amino)methyl)-1-methyl-1,2,3,4-tetrahydroisoquinoline-2-carbonyl)-4,4-dimethylpent-2-enenitrile]
12 | < 1.25 nM | > 75% | – | COc1cc(-c2cn(C)c(=O)c(C)c2C)cc(OC)c1CN1CCN(Cc2cccc3c2CCN(C(=O)/C(C#N)=C/C(C)(C)C)[C@H]3C(C)C)C2(CC2)C1 (single isomer, unassigned) [Compound C78, (E/Z)-2-(5-((7-(2,6-dimethoxy-4-(1,4,5-trimethyl-6-oxo-1,6-dihydropyridin-3-yl)benzyl)-4,7-diazaspiro[2.5]octan-4-yl)methyl)-1-isopropyl-1,2,3,4-tetrahydroisoquinoline-2-carbonyl)-4,4-dimethylpent-2-enenitrile]
13 | 25 to 1000 nM | 40 to 70% | – | COc1cc(-c2cn(C)c(=O)c(C)c2C)cc(OC)c1CN1CCN(Cc2cccc3c2CCN(C(=O)/C(C#N)=C/C(C)(C)C)[C@@H]3C(C)C)CC12CC2 (single isomer, unassigned) [Compound C82, (E/Z)-2-(5-((4-(2,6-dimethoxy-4-(1,4,5-trimethyl-6-oxo-1,6-dihydropyridin-3-yl)benzyl)-4,7-diazaspiro[2.5]octan-7-yl)methyl)-1-isopropyl-1,2,3,4-tetrahydroisoquinoline-2-carbonyl)-4,4-dimethylpent-2-enenitrile]
14 | 25 to 1000 nM | > 75% | – | COc1cc(-c2cn(C)c(=O)c(C)c2C)ccc1OC1CCC(Cc2cccc3c2CCN(C(=O)C(C#N)=CC(C)(C)N2CCN(C4COC4)CC2)C3C(C)C)CC1 (single isomer, unassigned) [Compound C86]
15 | 10 to 25 nM | 70 to 75% | – | COc1cc(-c2cn(C)c(=O)c(C)c2C)cc(OC)c1CN1CCN(Cc2ccc3c(c2)[C@H](C(C)C)N(C(=O)/C(C#N)=C/C(C)(C)C)CC3)C2(CC2)C1 (single isomer, unassigned) [Compound C87, (E/Z)-2-(7-((7-(2,6-dimethoxy-4-(1,4,5-trimethyl-6-oxo-1,6-dihydropyridin-3-yl)benzyl)-4,7-diazaspiro[2.5]octan-4-yl)methyl)-1-isopropyl-1,2,3,4-tetrahydroisoquinoline-2-carbonyl)-4,4-dimethylpent-2-enenitrile]
16 | 10 to 25 nM | 40 to 70% | – | COc1cc(-c2cn(C)c(=O)c(C)c2C)cc(OC)c1CN(C)Cc1ccc2c(c1)[C@@H](C(C)C)N(C(=O)/C(C#N)=C/C(C)(C)C)CC2 (single isomer, unassigned) [Compound C89]
17 | > 1000 nM | 40 to 70% | – | CC[C@H]1c2cccc(CN3CCN(Cc4c(OC)cc(-c5cn(C)c(=O)c(C)c5C)cc4OC)C4(CC4)C3)c2CCN1C(=O)/C(C#N)=C/C(C)(C)C (single isomer, unassigned) [Compound C90, (E/Z)-2-(5-((4-(2,6-dimethoxy-4-(1,4,5-trimethyl-6-oxo-1,6-dihydropyridin-3-yl)benzyl)-4,7-diazaspiro[2.5]octan-7-yl)methyl)-1-ethyl-1,2,3,4-tetrahydroisoquinoline-2-carbonyl)-4,4-dimethylpent-2-enenitrile]
